Assay results from patent publication US20100297256A1, “METHODS AND COMPOSITIONS FOR INHIBITING INTEGRINS USING TELLURIUM-CONTAINING COMPOUNDS” (priority 2007, published 2010).

Experiments:
SVEC4-10 cells = assay: Boyden chamber migration assay; assay type: cell-based, murine; conditions: 6 hours
Protocol: Migration assay was performed in a 48-well microchemotaxis chamber. Polyester membranes with 8 μm pores were coated with 0.1 mg/ml of collagen I in DMEM and then dried for 1 hour. B16F10 and Svec4-10 cells were harvested using TE and resuspended in DMEM containing 0.1% BSA. The bottom chamber was loaded with Svec4-10 supernatant/DMEM (1:5) containing varying concentration of AS101 or SAS and the filter was laid over the treatment solutions. Non-diluted Svec4-10 supernatant was used as a positive control. The upper wells were then loaded with 30,000 cells, the chamber was incubated at 37° C. for 6 hours and the filters were fixed and stained using Diff-Quick. The cells that migrated through the filter were quantified by counting the center of each well in a 36-box grid at ×20 using an Olympic CK2 microscope. Each condition was studied in triplicate wells, and each experiment was performed three times.

B16F10 cells = assay: Cell attachment assay, B16F10; assay type: cell-based, murine; conditions: B16F10, data not shown, compared with SVEC4-10
Protocol: The cell attachment assays were performed in sextuplicate in 96-well plates. The 1 μg of C16 or AG73 peptide in 60 μl double-distilled water was added to each well, and this volume was allowed to air dry overnight in a biosafety hood at room temperature (or fibronectin 20 ng/80 μl for 1 hour at 37° C.). Thereafter, nonspecific binding sites of the tissue culture plastic were blocked by adding 200 μl of 1% bovine serum albumin (BSA) in PBS for 1 hour at 37° C. LAN-1, B16F10 and SVEC4-10 cells were harvested by agitation, washed three times in serum-free DMEM and resuspended in 1% BSA-DMEM. After 20 minutes incubation in 1% BSA in a tube, cells were washed and resuspended in 0.1% BSA. The cells were counted using a hemocytometer and brought to a final cell count of 1×10^6/ml in the 0.1% BSA medium. […]
Next, 150 μl of the treated cell suspension was added to each well (20,000 cells/well), which had been coated with peptides, and incubated for 50 minutes at 37° C. […] 100 μl aliquot of 10% SDS was thereafter added to each well for cell lysis and dye release and absorption was read with a TECAN spectrophotometer at 570 nm.
Attached cells were washed with PBS without Ca^+2/Mg^+2. […] Dye bound to the cell is released by SDS and the absorption by the dye is measured by colorimetry at 570 nm. The amount of stained cells is then considered to be proportional to the measured absorption by the dye

C57B1/6N female mice = assay: Mouse plug in vivo migration and angiogenesis assay; conditions: 20 μg/mouse s.c. daily, 10 days, ECGS 500 μg/ml in Matrigel
Protocol: Matrigel was mixed with ECGS (500 μg/ml) and injected subcutaneously into C57B1/6N female mice on the ventral surface of the animal. During 10 days, every day, AS101 or SAS (20 μg/mouse in Matrigel) were injected subcutaneously. After 10 days, the plugs were removed with some surrounding tissue, fixed in 10% formalin, and paraffin-embedded. Sections were deparaffinized, and stained with hematoxylin and eosin dyes. In the most positive regions, stained cells were counted by a blinded observer. In each treatment group there were 5-6 mice, and the experiment was performed twice. Images from the sections were captured using a 10× objective of an Olympus microscope.

integrin β subunits = assay: Multiple anti-integrin antibody binding assay, β subunits; assay type: cell-based; conditions: SVEC cells
Protocol: The specificity of tellurium-containing compounds to integrins was tested by examining the effect of AS101 and SAS on the attachment of SVEC cells to specific anti-integrin antibodies. Commercially available kits (R&D Biosystems) with anti-integrin coated wells were used, and attachment was determined according to the manufacturer's instructions.

BV-2 cells = assay: Cell attachment assay, BV-2; assay type: cell-based, murine
αVβ3 integrin = target: T1, αVβ3 integrin (Homo sapiens, UniProt P05106+P06756); assay: ELISA-integrin; assay type: binding; conditions: 0.5-10 μg/ml
T1 construct: purchased Chemicon
T1 sequence (P06756 31-889 limits assumed): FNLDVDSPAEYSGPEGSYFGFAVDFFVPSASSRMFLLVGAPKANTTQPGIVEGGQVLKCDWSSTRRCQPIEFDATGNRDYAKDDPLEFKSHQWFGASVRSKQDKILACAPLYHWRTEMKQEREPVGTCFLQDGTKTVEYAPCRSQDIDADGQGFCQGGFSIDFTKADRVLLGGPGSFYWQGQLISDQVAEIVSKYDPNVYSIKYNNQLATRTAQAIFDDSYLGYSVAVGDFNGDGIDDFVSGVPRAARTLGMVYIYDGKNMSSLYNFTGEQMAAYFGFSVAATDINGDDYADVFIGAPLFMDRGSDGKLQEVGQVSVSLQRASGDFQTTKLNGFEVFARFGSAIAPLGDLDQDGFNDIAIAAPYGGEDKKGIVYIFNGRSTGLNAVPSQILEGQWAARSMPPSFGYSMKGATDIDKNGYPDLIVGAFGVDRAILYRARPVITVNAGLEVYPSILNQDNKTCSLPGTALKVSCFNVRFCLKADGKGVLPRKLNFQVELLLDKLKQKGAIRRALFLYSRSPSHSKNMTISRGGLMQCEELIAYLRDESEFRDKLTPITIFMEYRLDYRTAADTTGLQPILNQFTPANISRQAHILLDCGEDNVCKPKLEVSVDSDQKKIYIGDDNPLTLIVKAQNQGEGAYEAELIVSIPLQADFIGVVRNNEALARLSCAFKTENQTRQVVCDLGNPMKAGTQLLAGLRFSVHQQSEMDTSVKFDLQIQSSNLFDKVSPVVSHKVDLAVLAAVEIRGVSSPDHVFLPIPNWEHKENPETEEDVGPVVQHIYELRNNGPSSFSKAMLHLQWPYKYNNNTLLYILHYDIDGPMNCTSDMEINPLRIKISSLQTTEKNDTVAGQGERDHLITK
T1 sequence (P06756 891-1048 limits assumed): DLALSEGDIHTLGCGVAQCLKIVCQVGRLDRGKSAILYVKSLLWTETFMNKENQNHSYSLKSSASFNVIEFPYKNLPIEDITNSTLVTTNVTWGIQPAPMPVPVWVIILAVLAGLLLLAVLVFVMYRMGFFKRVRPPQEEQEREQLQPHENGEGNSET
T1 sequence (P05106 27-788): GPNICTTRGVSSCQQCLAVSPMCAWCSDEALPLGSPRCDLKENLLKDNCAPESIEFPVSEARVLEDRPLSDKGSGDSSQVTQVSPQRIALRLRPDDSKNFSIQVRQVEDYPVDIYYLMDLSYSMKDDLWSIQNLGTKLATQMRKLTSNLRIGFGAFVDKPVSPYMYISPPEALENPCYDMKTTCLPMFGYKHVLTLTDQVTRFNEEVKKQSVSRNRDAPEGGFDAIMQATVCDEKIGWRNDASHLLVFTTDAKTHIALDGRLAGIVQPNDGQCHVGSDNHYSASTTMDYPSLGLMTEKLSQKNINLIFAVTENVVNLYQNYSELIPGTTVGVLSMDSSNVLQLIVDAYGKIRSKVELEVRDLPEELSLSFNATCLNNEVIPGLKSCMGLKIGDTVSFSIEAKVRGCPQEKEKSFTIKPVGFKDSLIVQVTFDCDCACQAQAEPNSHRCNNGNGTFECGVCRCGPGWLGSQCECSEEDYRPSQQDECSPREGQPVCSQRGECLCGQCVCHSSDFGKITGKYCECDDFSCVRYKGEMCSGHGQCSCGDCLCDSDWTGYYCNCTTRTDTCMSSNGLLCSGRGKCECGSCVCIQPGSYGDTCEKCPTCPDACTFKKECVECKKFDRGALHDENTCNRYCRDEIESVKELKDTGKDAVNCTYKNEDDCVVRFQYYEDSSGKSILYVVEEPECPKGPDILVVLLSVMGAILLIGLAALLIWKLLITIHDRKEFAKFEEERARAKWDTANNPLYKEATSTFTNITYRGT
Protocol: Plates coated with C16 or fibronectin were blocked with 10% BSA for 1 hour and washed with PBS. 20 ng/well of integrin with or without AS101/SAS was applied on fibronectin or 2 ng C16 coated well and incubated for 1.5 hours at 37° C. The wells were thereafter washed with PBS-T and mouse anti-integrin was added thereto for 1 hour at 37° C. Cells were then washed again and anti-mouse-horseradish peroxidase was added for another 1 hour at 37° C. Finally, cells were washed, TBM-substrate was added for color development, and absorption was read at 595 nm. Data presented as ±SE, bar *=p<0.005, evaluated by T-test.

LAN-1 cells = assay: Cell attachment assay, LAN-1; assay type: cell-based, human; conditions: for cell attachment to fibronectin: LAN-1; for cell attachment to C16 and AG73 peptides: LAN-1, data not shown, compared with SVEC4-10
Protocol: The cell attachment assays were performed in sextuplicate in 96-well plates. The 1 μg of C16 or AG73 peptide in 60 μl double-distilled water was added to each well, and this volume was allowed to air dry overnight in a biosafety hood at room temperature (or fibronectin 20 ng/80 μl for 1 hour at 37° C.). Thereafter, nonspecific binding sites of the tissue culture plastic were blocked by adding 200 μl of 1% bovine serum albumin (BSA) in PBS for 1 hour at 37° C. LAN-1, B16F10 and SVEC4-10 cells were harvested by agitation, washed three times in serum-free DMEM and resuspended in 1% BSA-DMEM. After 20 minutes incubation in 1% BSA in a tube, cells were washed and resuspended in 0.1% BSA. The cells were counted using a hemocytometer and brought to a final cell count of 1×10^6/ml in the 0.1% BSA medium. Cells were divided into tubes and each tube was treated with one of the following in DMEM: ECGS (endothelial cell growth supplement) (50 μg/ml), AS101 (1-5 μg/ml), SAS (1-5 μg/ml), ECGS (50 μg/ml)+SAS (1-5 μg/ml), ECGS (50 μg/ml)+AS101 (1-5 μg/ml), 10% serum, 10% serum+AS101 (1-5 μg/ml) or 10% serum+SAS (1-5 μg/ml).
Next, 150 μl of the treated cell suspension was added to each well (20,000 cells/well), which had been coated with peptides, and incubated for 50 minutes at 37° C. After 50 minutes, the unattached cells were removed by aspiration and the remaining attached cells were fixed and stained by crystal violet. 100 μl aliquot of 10% SDS was thereafter added to each well for cell lysis and dye release and absorption was read with a TECAN spectrophotometer at 570 nm.
Attached cells were washed with PBS without Ca^+2/Mg^+2. 100 μl of 0.2% crystal violet in 20% methanol was thereafter added and the cells were incubated for 10 minutes at room temperature. At the end of incubation time, cells were washed twice with double-distilled water and 100 μl of 10% SDS was added. Dye bound to the cell is released by SDS and the absorption by the dye is measured by colorimetry at 570 nm. The amount of stained cells is then considered to be proportional to the measured absorption by the dye

aortic arches = assay: Chick aortic arch assay; assay type: cell-based; conditions: for vessel length and number, sprouting induced by ECGS / length of tubes exiting from arches / number of tubes exiting from arches: 0.5-5 μg/ml; for vessel length and number, sprouting induced by ECGS: 100 μg/ml ECGS; for length of tubes exiting from arches / number of tubes exiting from arches: without ECGS; for toxicity in aortic arch assay (re-sprouting after washing): data not shown
Protocol: Aortic arches were removed from fertilized chicken eggs at day 13 of embryonic development. The eggs were cracked into a sterile 100 mm culture dish. The embryo was removed from its surroundings by cutting away the associated membranes and yolk sac. The chicken embryo was placed ventral side up to surgically expose the heart and aortic arches. The heart and aortic arch were removed and placed into a sterile culture dish containing PBS to which 1% penicillin-streptomycin was added. Arches, from which the surrounding adventitia had been removed, were cut into 0.8 mm sections. Each arch was placed onto drop of Matrigel that was deposited on the bottom of a 48-well culture plate just prior to adding the ring. An additional drop of ice-cold Matrigel was spread on each aortic arch. Matrigel was allowed to solidify before adding 500 μl of human endothelial-SFM basal growth medium. […] Quantitative evaluation of tubule formation was performed by a blinded observer on a scale of 1-3 (least to maximum sprouting).

Structure (SMILES) | directional migration of murine endothelial cells through the membrane (SVEC4-10 cells) | cell attachment to C16 and AG73 peptides (B16F10 cells) | endothelial cell invasion and migration into Matrigel plug (angiogenesis) (C57B1/6N female mice) | cell attachment to antibodies against integrin β subunits (integrin β subunits) | cell attachment to fibronectin (BV-2 cells) | C16 peptide binding to αVβ3 integrin (αVβ3 integrin) | fibronectin binding to αVβ3 integrin (αVβ3 integrin) | cell attachment to fibronectin (LAN-1 cells) | cell attachment to C16 and AG73 peptides (LAN-1 cells) | vessel length and number, sprouting induced by ECGS (aortic arches) | length of tubes exiting from arches (aortic arches) | number of tubes exiting from arches (aortic arches) | toxicity in aortic arch assay (re-sprouting after washing) (aortic arches)
Cl[TeH]1(Cl)(Cl)OCCO1 [AS101, ammonium trichloro(dioxyethylene-O,O′)tellurate] | inhibited the directional migration | similar | inhibit endothelial cell invasion and migration | considerable inhibition | inhibited cell attachment to fibronectin | block | block | inhibited cell attachment to fibronectin | similar | inhibit the vessel length and number | reduced their length | did not inhibit the number of tubes exiting from arches | non-toxic
O=C1O[Te]23OC(=O)C(O2)C2O[Te]4(OC(=O)C(O4)C1O3)OC2=O [SAS, [TeO4(COCH)2]2] | inhibited the directional migration | similar | inhibit endothelial cell invasion and migration | considerable inhibition | inhibited cell attachment to fibronectin | block | block | inhibited cell attachment to fibronectin | similar | inhibit the vessel length and number | reduced their length | did not inhibit the number of tubes exiting from arches | non-toxic
